Assay results taken from ChEMBL document CHEMBL1201862, “PubChem BioAssay data set” (2004).
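A five-concentration, 48-hour dose response in 96-well plates underlies each endpoint, interpolated linearly between surrounding concentrations. GI50 is the concentration that inhibits growth by half.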 Activity calls are given as the source filed them. Rule as the data show it: active = GI50 up to about 1.1 µM and inactive = higher.

Tests used:
Experiment in all cases: NCI anticancer screen, dose series, 48 h
[1] = tested on: 786-0
[2] = tested on: A498
[3] = tested on: A549
[4] = tested on: ACHN
[5] = tested on: CAKI-1
[6] = tested on: CCRF-CEM
[7] = tested on: COLO 205
[8] = tested on: DLD-1
[9] = tested on: DMS-114
[10] = tested on: DMS-273
[11] = tested on: EKVX
[12] = tested on: HCC 2998
[13] = tested on: HCT-116
[14] = tested on: HCT-15
[15] = tested on: HL-60
[16] = tested on: HOP-18
[17] = tested on: HOP-62
[18] = tested on: HOP-92
[19] = tested on: HT-29
[20] = tested on: IGROV-1
[21] = tested on: K562
[22] = tested on: KM-20L2
[23] = tested on: KM12
[24] = tested on: LOX IMVI
[25] = tested on: LXFL 529
[26] = tested on: M14
[27] = tested on: M19-MEL
[28] = tested on: MOLT-4
[29] = tested on: Malme-3M
[30] = tested on: NCI-H226
[31] = tested on: NCI-H23
[32] = tested on: NCI-H460
[33] = tested on: NCI-H522
[34] = tested on: OVCAR-3
[35] = tested on: OVCAR-4
[36] = tested on: OVCAR-5
[37] = tested on: OVCAR-8
[38] = tested on: RPMI-8226
[39] = tested on: RXF 393
[40] = tested on: RXF 631
[41] = tested on: SF-268
[42] = tested on: SF-295
[43] = tested on: SF-539
[44] = tested on: SK-MEL-28
[45] = tested on: SK-MEL-2
[46] = tested on: SK-MEL-5
[47] = tested on: SK-OV-3
[48] = tested on: SN12C
[49] = tested on: SNB-19
[50] = tested on: SNB-75
[51] = tested on: SNB-78
[52] = tested on: SR
[53] = tested on: SW-620
[54] = tested on: TK-10
[55] = tested on: U-251
[56] = tested on: UACC-257
[57] = tested on: UACC-62
[58] = tested on: UO-31
[59] = tested on: XF498

Measured: GI50

Nc1nc(CC2(O)CCCCC2)cc(-c2ccccc2)n1
> 43.9 µM: [14]
inactive: [1] 21 µM | [2] 33.5 µM | [3] 26.7 µM | [4] 34.4 µM | [5] 51.2 µM | [6] 27.5 µM | [7] 16.7 µM | [8] 22.1 µM | [9] 23 µM | [10] > 44.9 µM | [11] 35.6 µM | [12] 26.6 µM | [13] 19.8 µM | [15] 15.6 µM | [16] 35.5 µM | [17] > 49.7 µM | [18] > 44.9 µM | [19] 16.6 µM | [20] 43 µM | [21] 16.6 µM | [22] 17.5 µM | [23] 23.1 µM | [24] 40.4 µM | [25] > 66.7 µM | [26] 29.2 µM | [27] 28.1 µM | [28] 16.7 µM | [29] > 10 µM | [30] > 44.8 µM | [31] > 43 µM | [32] 24.3 µM | [33] 27.2 µM | [34] 25.6 µM | [35] 35.1 µM | [36] 20.9 µM | [37] > 50.2 µM | [38] 23.6 µM | [39] > 40.3 µM | [40] 34.4 µM | [41] > 64.4 µM | [42] 38.5 µM | [43] > 74 µM | [44] > 63.2 µM | [45] 35.6 µM | [46] 24.9 µM | [47] > 100 µM | [48] 20.3 µM | [49] 31.2 µM | [50] > 47.9 µM | [51] > 48.6 µM | [52] 16.5 µM | [53] 25.7 µM | [54] > 61.8 µM | [55] 39 µM | [56] 36.3 µM | [57] 23.4 µM | [58] > 55 µM

COc1ccc(Cc2c(=O)[nH]nc3ccccc23)cc1
inactive: [1] > 100 µM | [2] > 100 µM | [3] 43.6 µM | [4] > 100 µM | [5] > 100 µM | [6] > 100 µM | [7] > 100 µM | [8] > 100 µM | [9] > 100 µM | [10] > 100 µM | [11] > 100 µM | [12] > 100 µM | [13] > 100 µM | [16] > 100 µM | [17] > 100 µM | [18] > 100 µM | [19] > 100 µM | [20] > 100 µM | [21] > 100 µM | [22] > 100 µM | [23] > 100 µM | [24] > 100 µM | [26] > 100 µM | [27] > 100 µM | [28] > 100 µM | [29] > 100 µM | [30] 85.7 µM | [31] 61 µM | [32] > 100 µM | [34] > 100 µM | [35] > 100 µM | [36] > 100 µM | [37] 90.6 µM | [38] > 100 µM | [40] > 100 µM | [41] > 100 µM | [42] > 100 µM | [43] > 100 µM | [44] > 100 µM | [45] > 100 µM | [46] 35.2 µM | [47] > 100 µM | [48] > 100 µM | [49] > 100 µM | [50] 29 µM | [51] > 100 µM | [53] > 100 µM | [54] > 100 µM | [56] > 100 µM | [57] > 100 µM | [58] 43.8 µM | [59] 33 µM
> 100 µM: [14]

Cc1cc(Cl)ccc1N1C(=O)C(=O)C(c2nc3ccccc3s2)/C(=N\NC(=O)c2ccccc2O)C1=O (stereo unspecified)
> 100 µM: [14]
inactive: [1] > 100 µM | [2] > 100 µM | [3] > 100 µM | [4] > 100 µM | [5] > 100 µM | [6] > 100 µM | [7] > 100 µM | [8] > 100 µM | [9] > 100 µM | [10] > 100 µM | [11] > 100 µM | [12] > 100 µM | [13] > 100 µM | [15] > 100 µM | [16] > 100 µM | [17] > 100 µM | [18] 46.7 µM | [19] > 100 µM | [20] > 100 µM | [21] > 100 µM | [22] > 100 µM | [23] > 100 µM | [24] > 100 µM | [25] > 100 µM | [26] > 100 µM | [27] > 100 µM | [29] > 100 µM | [30] > 100 µM | [31] > 100 µM | [32] > 100 µM | [33] > 100 µM | [34] > 100 µM | [35] > 100 µM | [36] > 100 µM | [37] > 100 µM | [38] > 100 µM | [39] > 100 µM | [40] > 100 µM | [41] > 100 µM | [42] > 100 µM | [43] > 100 µM | [44] > 100 µM | [45] > 100 µM | [46] > 100 µM | [47] > 100 µM | [48] > 100 µM | [49] > 100 µM | [50] > 100 µM | [51] > 100 µM | [52] > 100 µM | [53] > 100 µM | [54] > 100 µM | [55] > 100 µM | [56] > 100 µM | [57] > 100 µM | [58] > 100 µM

Clc1ccc(C2SCc3nc4ccccc4n32)cc1 (stereo unspecified)
inactive: [2] 20.9 µM | [4] 30.1 µM | [5] 16.8 µM | [6] 23.2 µM | [7] 16.5 µM | [9] 5.57 µM | [10] 15.4 µM | [11] 34.5 µM | [15] 5.24 µM | [16] 23.3 µM | [18] 2.54 µM | [19] 19.5 µM | [20] 14.5 µM | [21] 15.2 µM | [22] 28.2 µM | [24] 14.9 µM | [25] 18.7 µM | [26] 18.5 µM | [27] 19.9 µM | [28] 18 µM | [29] 11.1 µM | [30] 19.4 µM | [31] 10.9 µM | [32] 28.9 µM | [33] 14.4 µM | [34] 24.8 µM | [37] 29.1 µM | [38] 14.9 µM | [40] 29.2 µM | [41] 19 µM | [42] 26.2 µM | [43] 22.6 µM | [44] 21.2 µM | [45] 16 µM | [46] 10.3 µM | [47] 25.4 µM | [48] 17.1 µM | [49] 14.8 µM | [50] 4.88 µM | [51] 29.9 µM | [53] 33.3 µM | [54] 30.1 µM | [55] 24 µM | [57] 13.8 µM | [58] 13.5 µM | [59] 8.2 µM
27.4 µM: [14]

Cc1ccc(C(=O)O/N=C2/CCCCC2CN(C)C)cc1 (stereo unspecified)
> 100 µM: [14]
inactive: [1] > 100 µM | [2] > 100 µM | [3] > 100 µM | [4] > 100 µM | [5] > 100 µM | [6] > 100 µM | [7] > 100 µM | [8] > 100 µM | [9] > 100 µM | [10] > 100 µM | [11] > 100 µM | [12] > 100 µM | [13] > 100 µM | [15] > 100 µM | [16] > 100 µM | [17] > 100 µM | [18] > 100 µM | [19] > 100 µM | [20] > 100 µM | [21] > 100 µM | [22] > 100 µM | [23] > 100 µM | [24] > 100 µM | [25] > 100 µM | [26] > 100 µM | [27] > 100 µM | [28] > 100 µM | [29] > 100 µM | [30] > 100 µM | [31] > 100 µM | [32] > 100 µM | [33] > 100 µM | [34] > 100 µM | [35] > 100 µM | [36] > 100 µM | [37] > 100 µM | [38] > 100 µM | [39] > 100 µM | [40] > 100 µM | [41] > 10 µM | [42] > 100 µM | [43] > 100 µM | [44] > 100 µM | [45] > 100 µM | [46] > 100 µM | [47] > 100 µM | [48] > 100 µM | [50] > 100 µM | [51] > 100 µM | [52] > 100 µM | [54] > 100 µM | [55] > 100 µM | [56] > 100 µM | [57] > 100 µM | [58] > 100 µM
